What was measured:
GSH = GSH reactivity (glutathione half-life); assay type: physicochemical; details: 4.6 mM glutathione (GSH) in phosphate buffer; 4.6 mM GSH, 50 µM compound, pH 7.4 phosphate buffer, 37 °C; read-out: GSH t1/2 (converted)
Description: Compounds were suspended to 10 mM in 100% DMSO and were added to 4.6 mM GSH to achieve the final compound concentration of 50 µM in pH 7.4 phosphate buffer before incubating at 37 °C. Compound reaction with GSH was monitored by LC-MS on a Waters Acquity UPLC system with PDA and ELSD operating in positive and negative ion electrospray mode, employing an Acquity UPLC BEH C18, […], 2.1 × 50 mm column with 0.1% formic acid and water-acetonitrile (5–95%) for gradient elution over 4 minutes.

EGFR WT = target: T1, EGFR WT (Homo sapiens, UniProt P00533); assay: TR-FRET probe displacement assay, EGFR WT; assay type: binding; details: for WT pIC50 / IC50: 30 min incubation, mean of at least 3 replicates; for IC50: read-out: WT pIC50 (converted)
T1 construct: made in house; host or cells: Sf9 insect cells (MultiBac baculovirus)
T1 sequence (P00533 25-1210): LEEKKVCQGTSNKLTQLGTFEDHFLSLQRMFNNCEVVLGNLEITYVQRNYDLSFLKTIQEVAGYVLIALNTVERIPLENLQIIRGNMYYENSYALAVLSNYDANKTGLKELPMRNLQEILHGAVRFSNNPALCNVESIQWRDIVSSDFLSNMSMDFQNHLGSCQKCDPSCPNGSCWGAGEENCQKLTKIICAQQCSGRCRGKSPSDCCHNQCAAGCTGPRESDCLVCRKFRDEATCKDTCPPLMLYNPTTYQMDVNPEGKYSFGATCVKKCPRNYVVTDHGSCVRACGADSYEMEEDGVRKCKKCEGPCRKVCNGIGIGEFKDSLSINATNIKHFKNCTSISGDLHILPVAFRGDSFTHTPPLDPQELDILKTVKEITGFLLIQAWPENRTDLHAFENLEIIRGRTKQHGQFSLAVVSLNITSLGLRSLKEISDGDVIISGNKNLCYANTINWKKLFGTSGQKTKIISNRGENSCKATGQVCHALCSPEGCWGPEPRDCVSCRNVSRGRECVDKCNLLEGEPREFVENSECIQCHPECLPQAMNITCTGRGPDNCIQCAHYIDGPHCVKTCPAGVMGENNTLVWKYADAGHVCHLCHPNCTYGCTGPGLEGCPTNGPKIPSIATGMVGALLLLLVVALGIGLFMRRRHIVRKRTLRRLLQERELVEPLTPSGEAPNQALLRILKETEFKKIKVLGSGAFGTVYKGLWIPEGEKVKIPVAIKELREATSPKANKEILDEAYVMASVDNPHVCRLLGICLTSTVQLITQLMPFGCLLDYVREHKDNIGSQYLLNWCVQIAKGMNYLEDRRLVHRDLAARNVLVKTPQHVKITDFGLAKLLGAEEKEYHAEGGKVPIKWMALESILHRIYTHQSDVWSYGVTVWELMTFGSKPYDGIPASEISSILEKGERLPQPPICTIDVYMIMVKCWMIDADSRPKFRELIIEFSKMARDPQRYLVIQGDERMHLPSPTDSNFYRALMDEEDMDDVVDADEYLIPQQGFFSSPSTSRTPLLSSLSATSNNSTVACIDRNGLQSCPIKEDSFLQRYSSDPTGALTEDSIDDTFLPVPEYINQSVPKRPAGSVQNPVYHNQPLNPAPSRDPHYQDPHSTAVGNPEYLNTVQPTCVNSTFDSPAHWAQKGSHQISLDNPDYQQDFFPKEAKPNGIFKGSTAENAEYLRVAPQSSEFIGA
Description: (§1) The binding mode of gefitinib, typical of an anilinoquinazoline-based kinase inhibitor, is well characterised, with the morpholine side-chain extending into the solvent exposed region where a variety of substituents are tolerated. […] Accordingly, probe compound 6 was prepared, in which the morpholine was replaced by a piperazine and a BODIPY fluorophore was attached via a 4-aminobutanoate spacer (Fig. 3a). A related sapitinib-derived tracer has subsequently been described. Compound 6 was employed in a time-resolved Förster-resonance energy transfer (TR-FRET) assay with EGFR bound to a terbium-containing antibody (Fig. 3b). In line with our previous work exploring the activity of anilinoquinazoline-based acrylamide TCIs[14], the incubation time for the assay was set at 30 mins.
(§2) Compounds (dissolved to 10 mM in DMSO) were dispensed into black low-volume 384 well assay plates (Corning) over a final concentration range of 100000, 30,000, 10,000, 3000, 1000, 300, 100, 30, 10, and 3 nM using an Echo 550 (Labcyte). Positive control compound and DMSO as a negative control were dispensed into the first and last well, respectively. Each well was backfilled with DMSO to a final volume of 200 nl, resulting in final assay DMSO concentrations of 1%. […] Plates were read using a PheraStar FS (BMG Labtech) at Ex337nm […]. The data were analysed using GraphPad Prism/Dotmatics Studies Software. Assays were conducted in technical replicate and repeated as a biological duplicate.

EGFR DM (L858R/T790M) = target: T2, EGFR DM (L858R/T790M) (Homo sapiens, UniProt P00533, L858R/T790M); assay: TR-FRET probe displacement assay, EGFR DM; assay type: binding; details: for DM pIC50 / IC50: 30 min incubation, mean of at least 3 replicates; for IC50: read-out: DM pIC50 (converted)
T2 construct: His tag
T2 sequence (P00533 25-1210 T790M/L858R): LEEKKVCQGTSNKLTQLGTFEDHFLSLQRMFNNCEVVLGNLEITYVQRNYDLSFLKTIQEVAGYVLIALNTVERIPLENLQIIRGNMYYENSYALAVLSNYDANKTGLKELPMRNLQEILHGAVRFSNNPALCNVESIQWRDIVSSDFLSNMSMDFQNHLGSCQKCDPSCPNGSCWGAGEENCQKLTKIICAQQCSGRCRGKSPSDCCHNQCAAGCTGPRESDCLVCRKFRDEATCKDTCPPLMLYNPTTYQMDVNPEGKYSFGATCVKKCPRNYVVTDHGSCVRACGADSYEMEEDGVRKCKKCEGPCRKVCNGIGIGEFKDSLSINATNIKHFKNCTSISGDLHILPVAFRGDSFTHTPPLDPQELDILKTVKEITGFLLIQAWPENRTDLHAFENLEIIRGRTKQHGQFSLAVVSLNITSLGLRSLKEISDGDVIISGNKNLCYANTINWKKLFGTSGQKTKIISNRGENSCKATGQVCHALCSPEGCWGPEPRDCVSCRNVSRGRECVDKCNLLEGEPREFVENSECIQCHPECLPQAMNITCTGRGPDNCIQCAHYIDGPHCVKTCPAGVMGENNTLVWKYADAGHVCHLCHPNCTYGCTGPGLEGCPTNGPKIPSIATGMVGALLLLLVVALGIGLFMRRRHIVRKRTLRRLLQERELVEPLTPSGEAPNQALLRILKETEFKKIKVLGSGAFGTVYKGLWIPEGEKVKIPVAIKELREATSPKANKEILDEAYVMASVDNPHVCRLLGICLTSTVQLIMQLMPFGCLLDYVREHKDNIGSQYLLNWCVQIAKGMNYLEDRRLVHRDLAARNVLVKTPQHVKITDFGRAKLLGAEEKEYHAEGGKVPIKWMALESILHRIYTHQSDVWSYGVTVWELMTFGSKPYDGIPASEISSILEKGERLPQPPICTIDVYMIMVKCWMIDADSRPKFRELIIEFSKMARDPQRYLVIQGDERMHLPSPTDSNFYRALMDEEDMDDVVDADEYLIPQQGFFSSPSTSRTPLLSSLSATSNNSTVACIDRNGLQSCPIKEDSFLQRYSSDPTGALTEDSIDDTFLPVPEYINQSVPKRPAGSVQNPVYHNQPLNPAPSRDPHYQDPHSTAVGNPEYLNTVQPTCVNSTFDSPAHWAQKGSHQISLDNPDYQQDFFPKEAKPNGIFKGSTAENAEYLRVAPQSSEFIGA
Description: as §1, §2

A431 cells = assay: Growth inhibition in A431 cells (SRB, 72 h); assay type: cell-based; details: Homo sapiens, A-431, A431 cell viability, n = 1
Description: A431 cells purchased from ECACC, Cat. 85090402, were plated on day 0 in a 96-well plate at a density known to allow for exponential growth over 72 h in DMEM (Sigma-Aldrich, Cat No. D5796) supplemented with 10% FBS (Gibco, Cat No. 10270-106). On day 1, the compounds were diluted to the required concentration in DMEM + 10% FBS media, ensuring that the final DMSO concentration was 0.1% once added to cells. The cells were then incubated for 72 h at 37 °C with 5% CO2. Cells were then fixed by adding 50% (wt/vol) TCA to each well of the plate and left at 4 °C for 1 h. The plates were then washed thoroughly with water, 100 μL of 0.4% SRB solution was added to the wells, and left at room temperature for 30 min. The plates were rinsed with 1% AcOH and then left to air-dry in a drying cabinet for 1 h. Once dry, 100 μL of 10 mM tris pH 10.5 was added to each well and the plates were placed on a plate shaker for 10 min. The absorbance was read at 570 nm using a FluoStar Omega plate reader. Data is n = 1 from 3 replicates, […]

[1] = test system: pEGFR in WT EGFR overexpressing A431 cells; assay: Cellular pEGFR inhibition by HTRF in A431 cells; assay type: cell-based; details: Homo sapiens, A-431, n = 1, read-out: pIC50 (A431) cellular pEGFR inhibition (converted)
Description: (§3) Cells were plated at 20,000 cells per well in 96 well plates and placed at 37°C 5% CO2. Once adhered (after 24 h) cells were treated with compounds dissolved in DMSO at a final concentration of 0.1% DMSO in media. Compounds were diluted in media then added to cells for 2.5 hours in duplicate. 100 ng/ml EGF (ThermoFisher, PHG0311) was is added to all compound treated cells as well as a control for 30 mins. Compound and media were removed from the cells, then 50ul of HTRF lysis buffer was added (lysis buffer was diluted from 4X stock to 1X in DI water, with 1% blocking agent also added). Cells were lysed on a plate shaker (2000 rpm) for 30 minutes at room temperature. pEGFR expression was monitored using the Cisbio Phospho-EGFR (Tyr1068) cellular kit (64EG1PEH). Total EGFR expression was monitored using the Cisbio Total EGFR cellular kit (64NG1PEH) as per manufacturer’s instructions. Fluorescence emission was read at two different wavelengths (665 nm and 620 nm) on a PheraStar. Results were calculated as the ratio of pEGFR/ total EGFR and then the percentage of 0 µM control. Data is n = 1 from 2 replicates.

[2] = test system: pEGFR in DM expressing H1975 cells; assay: Cellular pEGFR inhibition by HTRF in H1975 cells; assay type: cell-based; details: Homo sapiens, NCI-H1975, n = 1, read-out: pIC50 (H1975) cellular pEGFR inhibition (converted)
Description: as §3

WT EGFR = target: T3, WT EGFR (Homo sapiens, UniProt P00533); assay: Intact protein mass spectrometry; assay type: binding; details: 15 µM compound, 4 µM EGFR, 4 hr, ambient temperature
T3 construct: AssayQuant Technologies Inc. (contract measurement)
T3 sequence (P00533 25-1210): as the sequence (P00533 25-1210) above
Description: Compounds were suspended to 10 mM in 100% DMSO and were added to 4 µM EGFR to achieve the final compound concentration of 15 µM in 1% DMSO, in 25 mM TRIS pH8, 150 mM NaCL, 5% glycerol before incubating at ambient temperature for the 4 hr time prior to analysis. […] 1 µL of purified protein (~1 mg/mL) was injected onto a MS Pac DS-10 Desalter cartridge ((Thermo Fisher Scientific), PN: 089170, 2.1 × 10 mm) for desalting and reversed phase separation at 70 °C. The mobile phase was 0.1% (v/v) formic acid in LC-MS grade water (A) and LC-MS grade acetonitrile (B) with separation performed over 7.5 min. […] Proteins were detected in positive ion mode using electrospray ionisation with nebuliser pressure of 45 psig, drying gas flow of 5 L/min, and source gas temperature of 325 °C. Sheath gas temperature of 400 °C and gas flow of 11 L/min, capillary voltage of 3500 V and nozzle voltage of 2000V were also used. Mass spectra were acquired using MassHunter Acquisition software (version B.08.00) over a mass range of 100–3000 m/z, at a rate of 1 spectra/s and 1000 ms/spectrum in standard mass range (3200 m/z) at 2 GHz. The instrument had been calibrated over the selected mass range prior to analysis.

SMILES: C=CC(=O)Nc1cc(Nc2nccc(-c3cn(C)c4ccccc34)n2)c(OC)cc1N(C)CCN(C)C [Compound 2, osimertinib, reference compound]
- half-life at 50 µM (GSH): 150 min

SMILES: COc1cc2ncnc(Nc3ccc(F)c(Cl)c3)c2cc1OCCCN1CCN(C(=O)CCCNC(=O)CCc2ccc3n2[B-](F)(F)[N+]2=C(C)C=C(C)C2=C3)CC1 [Compound 6, N-(4-(4-(3-((4-((3-chloro-4-fluorophenyl)amino)-7-methoxyquinazolin-6-yl)oxy)propyl)piperazin-1-yl)-4-oxobutyl)-3-(5,5-difluoro-7,9-dimethyl-5H-5l4,6l4-dipyrrolo[1,2-c:2’,1’-f][1,3,2]diazaborinin-3-yl)propenamide, reference compound]
- Kd (EGFR WT; fluorescent probe): 1600 ± 190 nM
- Kd (EGFR DM (L858R/T790M); fluorescent probe): 3 ± 1.6 µM

SMILES: C=CC(=O)N1CCC(Oc2cc3c(Nc4cccc(Cl)c4F)ncnc3cc2OC)CC1 [Compound 7]
- WT pIC50 (EGFR WT): 8.8 ± 0.1
- DM pIC50 (EGFR DM (L858R/T790M)): 8.4 ± 0.03

SMILES: C=CC(=O)N1CCC(Oc2cc3c(Nc4ccc(F)c(Cl)c4)ncnc3cc2OC)CC1 [Compound 8]
- WT pIC50 (EGFR WT): 8.3 ± 0.07
- DM pIC50 (EGFR DM (L858R/T790M)): 8.0 ± 0.6

SMILES: C=CC(=O)N1CC[C@@H](Oc2cc3c(Nc4ccc(F)c(Cl)c4)ncnc3cc2OC)C1 [Compound 16]
- GI50 (A431 cells): 316 nM
- IC50 (EGFR WT): 316 nM
- IC50 [1]: 79.4 nM
- half-life at 50 µM (GSH): 2160 min
- IC50 [2]: 2510 nM
- IC50 (EGFR DM (L858R/T790M)): 100 nM

SMILES: C=CC(=O)N1CC[C@H](Oc2cc3c(Nc4ccc(F)c(Cl)c4)ncnc3cc2OC)C1 [Compound 17]
- GI50 (A431 cells): 7.94 nM
- IC50 (EGFR WT): 5.01 nM
- IC50 [1]: < 10 nM
- half-life at 50 µM (GSH): 2460 min
- IC50 [2]: 25.1 nM
- IC50 (EGFR DM (L858R/T790M)): 6.31 nM
- level of protein modification compared to 16 (WT EGFR): two-fold increase

SMILES: COc1cc2ncnc(Nc3ccc(F)c(Cl)c3)c2cc1O[C@@H]1CCN(C(C)=O)C1 [Compound 22]
- IC50 (EGFR WT): 39.8 nM
- IC50 (EGFR DM (L858R/T790M)): 25.1 nM

SMILES: COc1cc2ncnc(Nc3ccc(F)c(Cl)c3)c2cc1O[C@H]1CCN(C(C)=O)C1 [Compound 23]
- IC50 (EGFR WT): 126 nM
- IC50 (EGFR DM (L858R/T790M)): 31.6 nM

Source: PMC11982232, “Factors affecting irreversible inhibition of EGFR and influence of chirality on covalent binding” (Communications Chemistry, 2025)
